Assay results from patent publication US8906919B2, “Treatment of non-neuronal and non-myocardial cell, tissue and organ damage and associated pain with persistent sodium current blockers” (Ozteo Pty Ltd, priority 2009, dated 2014).
Where two headings read alike, the source gives them in different places.

What was measured:
[1] = tested on: kidney tissue; conditions: rat, iv before ischaemia (riluzole 5 mg/kg, lidocaine 1 mg/kg, lamotrigine 20 mg/kg)
Protocol: (§1) Additional studies were performed on kidney tissue in 48 isoflurane-anaesthetised, male Wistar albino rats (300-350 g). […] A further ten minutes was allowed for drug circulation prior to the induction of ischaemia. Tissue ischaemia was produced in all animals by occluding the renal artery to the left kidney. Immediately prior to occlusion, a 1,000 unit bolus of IV heparin was injected to prevent blood clotting and to permit reperfusion. Occlusion was maintained for 3 hours following which, in 6 animals in each group, the occlusion was released and reperfusion of the kidney was allowed. Samples of reperfused tissue were excised 45 minutes following reperfusion. Samples of non-reperfused ischaemic tissue were excised 3 hours post occlusion. Samples of ischaemic tissue and of reperfused tissue were taken from different animals. Samples of non-ischaemic, non-treated tissue were excised from the right kidney of the non-treated group.
In addition, persistent sodium current blockade was assessed for its affect on kidney tissue DNA fragmentation during ischaemia and reperfusion. […] All panels were illuminated by light with wavelength around 520 nm to show DNA fragmentation.

[2] = tested on: kidney tissue; conditions: rat; for kidney glutathione levels compared with non-treated reperfused group: 3 h ischaemia and 45 min reperfusion (FIG. 9)
Protocol: as §1
Persistent sodium current blockade was evaluated for its effect on kidney tissue glutathione levels during ischaemia and reperfusion.

[3] = 3 hours of ischaemia and 45 minutes of reperfusion (FIG. 10)
[4] = 3 hours of ischaemia and no reperfusion (FIG. 10)
[5] = iv before ischaemia (riluzole 5 mg/kg, lidocaine 1 mg/kg, lamotrigine 20 mg/kg)

Row | Structure (SMILES) | damaged nuclei (DNA fragmentation) in renal tubules compared with non-treated tissue [1, 3] | damaged nuclei (DNA fragmentation) in renal tubules compared with non-treated tissue [1, 4] | kidney glutathione levels compared with non-treated, non-ischaemic and non-reperfused group ([2]; iv before ischaemia (riluzole 5 mg/kg, lidocaine 1 mg/kg), 3 h ischaemia and 45 min reperfusion (FIG. 9, vs 901)) | kidney glutathione levels compared with non-treated reperfused group [2, 5] | kidney glutathione levels after ischaemia ([2]; iv before ischaemia (riluzole 5 mg/kg, lidocaine 1 mg/kg, lamotrigine 20 mg/kg), 3 h renal artery occlusion, no reperfusion (FIG. 8))
1 | CCN(CC)CC(=O)Nc1c(C)cccc1C [lidocaine] | considerably fewer damaged nuclei | considerably fewer damaged nuclei | not significantly different | significantly higher | not significantly reduced
2 | Nc1nnc(-c2cccc(Cl)c2Cl)c(N)n1 [lamotrigine] | the reduction in damaged nuclei is still significant | the reduction in damaged nuclei is still significant | – | substantially higher | –
